Here are results for one molecule from patent US20120178085A1, “METHOD FOR EVALUATION OF CULTURED CELLS, AND METHOD FOR SCREENING OF BIOMARKER” (priority 2009, published 2012).

This data set relates to Human liver cancer-derived cell line (HuH-7). Put plainly: miRNA released into serum-free culture medium from HuH-7 cells treated with carbon tetrachloride (real-time PCR). Type of data set: cell-based. Particulars: carbon tetrachloride 0-1000 μM, 7-day culture in serum-free maintenance medium, FIG. 2. As for the experimental part:
Human liver cancer-derived cell line (HuH-7, purchased from ATCC) was seeded in a culture vessel of 12-well culture plate at a cell density of 20000 cells/cm^2, and cells were cultured for 7 days in a serum-free maintenance medium containing carbon tetrachloride, which was known to injure liver tissue and liver cells, at a relatively low concentration of 0-1000 μM used in World J Gastroenterol. 2008 Jun. 21; 14(23):3693-709. The maintenance medium used herein was the same as one used in Example 1.
Each culture medium was collected after 7-day culturing, and cells were removed by filtration through a 0.22 μm filter to obtain samples.
cDNA samples of Poly(A)miRNA samples were obtained in the same manner as in Example 1.
Real-time PCR was carried out using Platinum SYBR Green (produced by Invitrogen) to measure hsa-miR-21, hsa-miR-122, hsa-miR-451 and hsa-miR-16 contained in the cDNA samples. The primers used were as follows.
A general note: In qPCR the cycle at which signal appears reflects the starting amount.

Turning to `ClC(Cl)(Cl)Cl` [carbon tetrachloride], the “amount of miRNA released from cells into culture medium (hsa-miR-21, hsa-miR-122, hsa-miR-451, hsa-miR-16)” value is on record as “increased”.
